The values below come from patent US7964560B2, “Hepatitis C virus inhibitors” (Bristol-Myers Squibb Company, priority 2008, dated 2011).

Each structure is given as a SMILES string. Like-named read-outs stand apart in the source and are kept apart here.

Assay [1] addresses T1, HCV NS3/4A protease complex, BMS strain (UniProt P27958, species not given/STRAIN_BMS).
T1 construct: other: BMS strain; said of H77 and J4L6S; fused on or other part: three-lysine solubilising tail at the end of NS4A (printed for the H77 and J4L6S constructs; probably the same for BMS)
Nature of the assay: FRET peptide assay to monitor HCV NS3/4A proteolytic activity (BMS strain). Format: biochemical, Hepatitis C virus (genotype 1a). The conditions noted are these: read-out: IC50 against the NS3/4A BMS strain in the enzyme assay; BMS strain. The source says:
(§1) HCV […] protease complexes, derived from the BMS strain, H77 strain or J4L6S strain, were generated, as described below. These purified recombinant proteins were generated for use in a homogeneous assay (see below) to provide an indication of how effective compounds of the present disclosure would be in inhibiting HCV NS3 proteolytic activity.
(§2) Serum from an HCV-infected patient was obtained from Dr. T. Wright, San Francisco Hospital. An engineered full-length cDNA (compliment deoxyribonucleic acid) template of the HCV genome (BMS strain) was constructed from DNA fragments obtained by reverse transcription-PCR (RT-PCR) of serum RNA (ribonucleic acid) and using primers selected on the basis of homology between other genotype 1a strains. From the determination of the entire genome sequence, a genotype 1a was assigned to the HCV isolate according to the classification of Simmonds et al. (See Simmonds, P. et al., J. Clin. Microbiol., 31(6), 1493-1503 (1993)). […] The infectious clones, H77 (1a genotype) and J4L6S (1b genotype) were obtained from R. Purcell (NIH) and the sequences are published in GENBANK® (AAB67036, see Yanagi, M. et al., Proc. Natl. Acad. Sci. U.S.A., 94(16):8738-8743 (1997); AF054247, see Yanagi, M. et al., Virology, 244(1):161-172 (1998)).
(§3) The H77 and J4L6S strains were used for production of recombinant NS3/4A protease complexes. DNA encoding the recombinant HCV NS3/4A protease complex (amino acids 1027 to 1711) for these strains were manipulated as described by P. Gallinari et al. (see Gallinari, P. et al, Biochemistry, 38(17):5620-5632 (1999)). Briefly, a three-lysine solubilizing tail was added at the 3′-end of the NS4A coding region. The cysteine in the P1 position of the NS4A-NS4B cleavage site (amino acid 1711) was changed to a glycine to avoid the proteolytic cleavage of the lysine tag. Furthermore, a cysteine to serine mutation was introduced by PCR at amino acid position 1454 to prevent the autolytic cleavage in the NS3 helicase domain. The variant DNA fragment was cloned in the pET21b bacterial expression vector (Novagen) and the NS3/4A complex was expressed in Escherichia. coli strain BL21 (DE3) (Invitrogen) following the protocol described by P. Gallinari et al. (see Gallinari, P. et al., J. Virol., 72(8):6758-6769 (1998)) with modifications. Briefly, the NS3/4A protease complex expression was induced with 0.5 millimolar (mM) Isopropyl β-D-1-thiogalactopyranoside (IPTG) for 22 hours (h) at 20° C. A typical fermentation (1 Liter (L)) yielded approximately 10 grams (g) of wet cell paste. The cells were resuspended in lysis buffer (10 mL/g) consisting of 25 mM N-(2-hydroxyethyl)piperazine-N′-(2-ethane sulfonic acid) (HEPES), pH 7.5, 20% glycerol, 500 mM sodium chloride (NaCl), 0.5% Triton X-100, 1 microgram/milliliter (“μg/mL”) lysozyme, 5 mM magnesium chloride (MgCl2), 1 μg/ml DnaseI, 5 mM β-mercaptoethanol (βME), protease inhibitor-ethylenediamine tetraacetic acid (EDTA) free (Roche), homogenized and incubated for 20 minutes (min) at 4° C. The homogenate was sonicated and clarified by ultra-centrifugation at 235000 g for 1 hour (h) at 4° C. Imidazole was added to the supernatant to a final concentration of 15 mM and the pH adjusted to 8.0. The crude protein extract was loaded on a Nickel-Nitrilotriacetic acid (Ni-NTA) column pre-equilibrated with buffer B (25 mM HEPES, pH 8.0, 20% glycerol, 500 mM NaCl, 0.5% Triton X-100, 15 mM imidazole, 5 mM βME). The sample was loaded at a flow rate of 1 mL/min. The column was washed with 15 column volumes of buffer C (same as buffer B except with 0.2% Triton X-100). The protein was eluted with 5 column volumes of buffer D (same as buffer C except with 200 mM Imidazole).
(§4) NS3/4A protease complex-containing fractions were pooled and loaded on a desalting column Superdex-S200 pre-equilibrated with buffer D (25 mM HEPES, pH 7.5, 20% glycerol, 300 mM NaCl, 0.2% Triton X-100, 10 mM βME). Sample was loaded at a flow rate of 1 mL/min. […]
T1 sequence (P27958 1027-1657, change not shown, one chain of several): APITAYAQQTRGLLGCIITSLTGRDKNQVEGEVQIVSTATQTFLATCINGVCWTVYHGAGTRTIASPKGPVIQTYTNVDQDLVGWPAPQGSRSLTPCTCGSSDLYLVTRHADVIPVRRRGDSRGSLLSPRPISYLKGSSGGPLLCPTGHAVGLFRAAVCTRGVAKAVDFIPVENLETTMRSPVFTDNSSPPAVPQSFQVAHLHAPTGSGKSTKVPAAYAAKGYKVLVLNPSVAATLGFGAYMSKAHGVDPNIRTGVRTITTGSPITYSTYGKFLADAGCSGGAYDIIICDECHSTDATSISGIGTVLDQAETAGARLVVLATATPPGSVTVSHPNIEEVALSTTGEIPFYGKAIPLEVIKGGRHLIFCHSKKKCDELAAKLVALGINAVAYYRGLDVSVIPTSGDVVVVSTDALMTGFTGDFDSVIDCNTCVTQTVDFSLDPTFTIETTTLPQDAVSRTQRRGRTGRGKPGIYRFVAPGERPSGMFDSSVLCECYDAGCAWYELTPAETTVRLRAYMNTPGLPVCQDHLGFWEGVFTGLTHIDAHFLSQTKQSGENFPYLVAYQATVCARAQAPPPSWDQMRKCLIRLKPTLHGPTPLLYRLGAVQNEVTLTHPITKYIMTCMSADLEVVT

Assay [2] has as its target T2, HCV NS3/4A protease complex, BMS strain (UniProt P27958, species not given/STRAIN_BMS).
T2 construct: said of H77 and J4L6S; fused on or other part: three-lysine solubilising tail at the end of NS4A (printed for the H77 and J4L6S constructs; probably the same for BMS)
The assay is described as above. In kind it is biochemical, Hepatitis C virus (genotype 1a). To be noted: Table 2, NS3/4A BMS strain, numeric values.
Excerpt: as §1, §2, §3, §4
T2 sequence (P27958 1027-1657, change not shown, one chain of several): as above

The target in assay [3] is T3, HCV NS3/4A protease complex, H77 strain (Hepatitis C virus genotype 1a, UniProt P27958, C1454S/C1711G).
T3 construct: DNA encoding the recombinant HCV NS3/4A protease complex (amino acids 1027 to 1711) for these strains; His tag (inferred from pET21b vector and Ni-NTA purification); made in house; host or cells: Escherichia coli BL21 (DE3), pET21b
Briefly: FRET peptide assay to monitor HCV NS3/4A proteolytic activity (H77 strain). In kind it is biochemical, Hepatitis C virus (1a genotype).
Excerpt: as §1, §2
The H77 and J4L6S strains were used for production of recombinant NS3/4A protease complexes. […]

Assay [4] relates to HCV replicon (Renilla luciferase reporter) in HUH-7 cells. Nature of the assay: HCV replicon luciferase reporter assay. Format: cell-based, Hepatitis C virus (strain 1b). The conditions noted are these: Huh-7, 96 h, 4 days.

T3 sequence (P27958 1027-1711 C1454S/C1711G, one chain of several): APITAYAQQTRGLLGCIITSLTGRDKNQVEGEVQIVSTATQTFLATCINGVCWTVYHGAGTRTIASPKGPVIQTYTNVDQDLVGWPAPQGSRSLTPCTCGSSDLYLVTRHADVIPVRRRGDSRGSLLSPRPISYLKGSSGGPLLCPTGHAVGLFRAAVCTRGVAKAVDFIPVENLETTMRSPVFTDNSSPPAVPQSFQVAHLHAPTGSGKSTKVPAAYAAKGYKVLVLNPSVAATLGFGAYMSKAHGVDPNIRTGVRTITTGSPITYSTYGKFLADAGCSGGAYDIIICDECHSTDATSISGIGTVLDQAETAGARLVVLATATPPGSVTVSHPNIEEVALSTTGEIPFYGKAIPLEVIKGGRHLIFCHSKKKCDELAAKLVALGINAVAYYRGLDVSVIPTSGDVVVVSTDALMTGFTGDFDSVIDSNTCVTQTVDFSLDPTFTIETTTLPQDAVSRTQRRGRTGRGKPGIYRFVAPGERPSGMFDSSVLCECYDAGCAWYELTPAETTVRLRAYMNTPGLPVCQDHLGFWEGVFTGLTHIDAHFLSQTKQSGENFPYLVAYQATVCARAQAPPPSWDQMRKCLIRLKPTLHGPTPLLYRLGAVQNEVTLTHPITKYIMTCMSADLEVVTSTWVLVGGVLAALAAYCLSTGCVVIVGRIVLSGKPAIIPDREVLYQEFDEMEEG

On to `C=C[C@@H]1C[C@]1(NC(=O)[C@@H]1C[C@@](SCCCC)(c2ccc(-c3ccccc3)cc2)CN1C(=O)[C@@H](NC(=O)OC(C)(C)C)C(C)(C)C)C(=O)NS(=O)(=O)C1CC1` [Example 1, tert-butyl (S)-1-((2S,4R)-4-(biphenyl-4-yl)-4-(butylthio)-2-((1R,2S)-1-(cyclopropylsulfonylcarbamoyl)-2-vinylcyclopropylcarbamoyl)pyrrolidin-1-yl)-3,3-dimethyl-1-oxobutan-2-ylcarbamate], for which the results for the IC50 in assay [1], in assay [2] and in assay [3] were 4.6 nM, 3 nM and 1.7 nM, respectively. For the same compound, the half-maximal effective concentration (EC50) – broadly, the midpoint of the concentration-response curve – in assay [4] was 6 nM.
